{
  "source": "ChEMBL document CHEMBL3885881",
  "about": "“DrugMatrix”",
  "species_on_record": "Rattus norvegicus",
  "assay": "DrugMatrix - Regimen: Daily Repeat",
  "format": "toxicity, organism-based, Sprague-Dawley",
  "parameters": "regimen Daily Repeat, gender Male, age 6-8 weeks",
  "conditions": "in vivo, sc, 7 mg/kg, route subcutaneous, dose level High, […]; for ABSOLUTE BASOPHIL / ABSOLUTE EOSINOPHIL / ABSOLUTE LYMPHOCYTE / ABSOLUTE MONOCYTE / ABSOLUTE SEGMENTED NEUTROPHIL / BASOPHIL / EOSINOPHIL / ERYTHROCYTE COUNT / HEMATOCRIT / HEMOGLOBIN / LEUKOCYTE COUNT / LYMPHOCYTE / MEAN CORPUSCULAR HEMOGLOBIN / MEAN CORPUSCULAR HEMOGLOBIN CONCENTRATION / MEAN CORPUSCULAR VOLUME / MONOCYTE / NEUTROPHIL / NUCLEATED RED BLOOD CELLS / PLATELET COUNT: tissue Blood; for ALANINE AMINOTRANSFERASE / ALBUMIN / ALKALINE PHOSPHATASE / ASPARTATE AMINOTRANSFERASE / BLOOD UREA NITROGEN / CARBON DIOXIDE / CHLORIDE / CHOLESTEROL / CREATINE PHOSPHOKINASE / CREATININE / GLUCOSE / LACTATE DEHYDROGENASE / LIPASE / PHOSPHORUS / POTASSIUM / SODIUM / TOTAL BILIRUBIN / TOTAL PROTEIN / URIC ACID: tissue Plasma",
  "data": [
    {"molecule": "CC1=C(/C=C/C(C)=C/C=C/C(C)=C/C(=O)O)C(C)(C)CCC1", "note": "[TRETINOIN]", "values": [
      {"measurement": "ABSOLUTE BASOPHIL", "setting": "72 h, time 3 day", "value": 0, "unit": "CELLS/uL"},
      {"measurement": "ABSOLUTE EOSINOPHIL", "setting": "72 h, time 3 day", "value": 0, "unit": "CELLS/uL"},
      {"measurement": "ABSOLUTE LYMPHOCYTE", "setting": "72 h, time 3 day", "value": 16685.33, "unit": "CELLS/uL"},
      {"measurement": "ABSOLUTE MONOCYTE", "setting": "72 h, time 3 day", "value": 222.33, "unit": "CELLS/uL"},
      {"measurement": "ABSOLUTE SEGMENTED NEUTROPHIL", "setting": "72 h, time 3 day", "value": 2859, "unit": "CELLS/uL"},
      {"measurement": "BASOPHIL", "setting": "72 h, time 3 day", "value": 0, "unit": "%"},
      {"measurement": "EOSINOPHIL", "setting": "72 h, time 3 day", "value": 0, "unit": "%"},
      {"measurement": "ERYTHROCYTE COUNT", "setting": "72 h, time 3 day", "value": 5.42, "unit": "x10E6/uL"},
      {"measurement": "HEMATOCRIT", "setting": "72 h, time 3 day", "value": 34.57, "unit": "%"},
      {"measurement": "HEMOGLOBIN", "setting": "72 h, time 3 day", "value": 12.7, "unit": "G/DL"},
      {"measurement": "LEUKOCYTE COUNT", "setting": "72 h, time 3 day", "value": 19.77, "unit": "x10E3/uL"},
      {"measurement": "LYMPHOCYTE", "setting": "72 h, time 3 day", "value": 84, "unit": "%"},
      {"measurement": "MEAN CORPUSCULAR HEMOGLOBIN", "setting": "72 h, time 3 day", "value": 23.43, "unit": "pg"},
      {"measurement": "MEAN CORPUSCULAR HEMOGLOBIN CONCENTRATION", "setting": "72 h, time 3 day", "value": 36.73, "unit": "G/DL"},
      {"measurement": "MEAN CORPUSCULAR VOLUME", "setting": "72 h, time 3 day", "value": 63.77, "unit": "fL"},
      {"measurement": "MONOCYTE", "setting": "72 h, time 3 day", "value": 1, "unit": "%"},
      {"measurement": "NEUTROPHIL", "setting": "72 h, time 3 day", "value": 15, "unit": "%"},
      {"measurement": "NUCLEATED RED BLOOD CELLS", "setting": "72 h, time 3 day", "value": "0 /100WBC"},
      {"measurement": "PLATELET COUNT", "setting": "72 h, time 3 day", "value": 1323.33, "unit": "x10E3/uL"},
      {"measurement": "ALANINE AMINOTRANSFERASE", "setting": "72 h, time 3 day", "value": 50, "unit": "u/L"},
      {"measurement": "ALBUMIN", "setting": "72 h, time 3 day", "value": 4.03, "unit": "G/DL"},
      {"measurement": "ALKALINE PHOSPHATASE", "setting": "72 h, time 3 day", "value": 328.67, "unit": "u/L"},
      {"measurement": "ASPARTATE AMINOTRANSFERASE", "setting": "72 h, time 3 day", "value": 77.33, "unit": "u/L"},
      {"measurement": "BLOOD UREA NITROGEN", "setting": "72 h, time 3 day", "value": 15.67, "unit": "mg/dL"},
      {"measurement": "CARBON DIOXIDE", "setting": "72 h, time 3 day", "value": 15, "unit": "mmol/L"},
      {"measurement": "CHLORIDE", "setting": "72 h, time 3 day", "value": 103.67, "unit": "MEQ/L"},
      {"measurement": "CHOLESTEROL", "setting": "72 h, time 3 day", "value": 79, "unit": "mg/dL"},
      {"measurement": "CREATINE PHOSPHOKINASE", "setting": "72 h, time 3 day", "value": 311.33, "unit": "u/L"},
      {"measurement": "CREATININE", "setting": "72 h, time 3 day", "value": 0.19, "unit": "mg/dL"},
      {"measurement": "GLUCOSE", "setting": "72 h, time 3 day", "value": 165.33, "unit": "mg/dL"},
      {"measurement": "LACTATE DEHYDROGENASE", "setting": "72 h, time 3 day", "value": 120.33, "unit": "u/L"},
      {"measurement": "LIPASE", "setting": "72 h, time 3 day", "value": 9.67, "unit": "u/L"},
      {"measurement": "PHOSPHORUS", "setting": "72 h, time 3 day", "value": 13.53, "unit": "mg/dL"},
      {"measurement": "POTASSIUM", "setting": "72 h, time 3 day", "value": 7.16, "unit": "MEQ/L"},
      {"measurement": "SODIUM", "setting": "72 h, time 3 day", "value": 147, "unit": "MEQ/L"},
      {"measurement": "TOTAL BILIRUBIN", "setting": "72 h, time 3 day", "value": 0.2, "unit": "mg/dL"},
      {"measurement": "TOTAL PROTEIN", "setting": "72 h, time 3 day", "value": 5.97, "unit": "G/DL"},
      {"measurement": "URIC ACID", "setting": "72 h, time 3 day", "value": 1.5, "unit": "mg/dL"},
      {"measurement": "ABSOLUTE BASOPHIL", "setting": "120 h, time 5 day", "value": 0, "unit": "CELLS/uL"},
      {"measurement": "ABSOLUTE EOSINOPHIL", "setting": "120 h, time 5 day", "value": 71.67, "unit": "CELLS/uL"},
      {"measurement": "ABSOLUTE LYMPHOCYTE", "setting": "120 h, time 5 day", "value": 17691.67, "unit": "CELLS/uL"},
      {"measurement": "ABSOLUTE MONOCYTE", "setting": "120 h, time 5 day", "value": 531.67, "unit": "CELLS/uL"},
      {"measurement": "ABSOLUTE SEGMENTED NEUTROPHIL", "setting": "120 h, time 5 day", "value": 3905, "unit": "CELLS/uL"},
      {"measurement": "BASOPHIL", "setting": "120 h, time 5 day", "value": 0, "unit": "%"},
      {"measurement": "EOSINOPHIL", "setting": "120 h, time 5 day", "value": 0.33, "unit": "%"},
      {"measurement": "ERYTHROCYTE COUNT", "setting": "120 h, time 5 day", "value": 5.84, "unit": "x10E6/uL"},
      {"measurement": "HEMATOCRIT", "setting": "120 h, time 5 day", "value": 36.1, "unit": "%"},
      {"measurement": "HEMOGLOBIN", "setting": "120 h, time 5 day", "value": 13.37, "unit": "G/DL"},
      {"measurement": "LEUKOCYTE COUNT", "setting": "120 h, time 5 day", "value": 22.2, "unit": "x10E3/uL"},
      {"measurement": "LYMPHOCYTE", "setting": "120 h, time 5 day", "value": 79.67, "unit": "%"},
      {"measurement": "MEAN CORPUSCULAR HEMOGLOBIN", "setting": "120 h, time 5 day", "value": 22.9, "unit": "pg"},
      {"measurement": "MEAN CORPUSCULAR HEMOGLOBIN CONCENTRATION", "setting": "120 h, time 5 day", "value": 37.03, "unit": "G/DL"},
      {"measurement": "MEAN CORPUSCULAR VOLUME", "setting": "120 h, time 5 day", "value": 61.8, "unit": "fL"},
      {"measurement": "MONOCYTE", "setting": "120 h, time 5 day", "value": 2.33, "unit": "%"},
      {"measurement": "NEUTROPHIL", "setting": "120 h, time 5 day", "value": 17.67, "unit": "%"},
      {"measurement": "NUCLEATED RED BLOOD CELLS", "setting": "120 h, time 5 day", "value": "0 /100WBC"},
      {"measurement": "PLATELET COUNT", "setting": "120 h, time 5 day", "value": 1087.33, "unit": "x10E3/uL"},
      {"measurement": "ALANINE AMINOTRANSFERASE", "setting": "120 h, time 5 day", "value": 46.33, "unit": "u/L"},
      {"measurement": "ALBUMIN", "setting": "120 h, time 5 day", "value": 3.87, "unit": "G/DL"},
      {"measurement": "ALKALINE PHOSPHATASE", "setting": "120 h, time 5 day", "value": 319.67, "unit": "u/L"},
      {"measurement": "ASPARTATE AMINOTRANSFERASE", "setting": "120 h, time 5 day", "value": 88, "unit": "u/L"},
      {"measurement": "BLOOD UREA NITROGEN", "setting": "120 h, time 5 day", "value": 14.67, "unit": "mg/dL"},
      {"measurement": "CARBON DIOXIDE", "setting": "120 h, time 5 day", "value": 33.33, "unit": "mmol/L"},
      {"measurement": "CHLORIDE", "setting": "120 h, time 5 day", "value": 103.33, "unit": "MEQ/L"},
      {"measurement": "CHOLESTEROL", "setting": "120 h, time 5 day", "value": 75.67, "unit": "mg/dL"},
      {"measurement": "CREATINE PHOSPHOKINASE", "setting": "120 h, time 5 day", "value": 348, "unit": "u/L"},
      {"measurement": "CREATININE", "setting": "120 h, time 5 day", "value": 0.28, "unit": "mg/dL"},
      {"measurement": "GLUCOSE", "setting": "120 h, time 5 day", "value": 172.33, "unit": "mg/dL"},
      {"measurement": "LACTATE DEHYDROGENASE", "setting": "120 h, time 5 day", "value": 105.67, "unit": "u/L"},
      {"measurement": "LIPASE", "setting": "120 h, time 5 day", "value": 12, "unit": "u/L"},
      {"measurement": "PHOSPHORUS", "setting": "120 h, time 5 day", "value": 13.8, "unit": "mg/dL"},
      {"measurement": "POTASSIUM", "setting": "120 h, time 5 day", "value": 6.84, "unit": "MEQ/L"},
      {"measurement": "SODIUM", "setting": "120 h, time 5 day", "value": 147.23, "unit": "MEQ/L"},
      {"measurement": "TOTAL BILIRUBIN", "setting": "120 h, time 5 day", "value": 0.13, "unit": "mg/dL"},
      {"measurement": "TOTAL PROTEIN", "setting": "120 h, time 5 day", "value": 6.07, "unit": "G/DL"},
      {"measurement": "URIC ACID", "setting": "120 h, time 5 day", "value": 1.8, "unit": "mg/dL"}
    ]}
  ]
}
